# Experiment: in vitro
# Conditions: human, uninfected MT-4 cells
row,SMILES,CC50 at 5 days [µM]
1,"COC1=NO[C@@]2(CC[C@H](C)N3C[C@H]2n2cc(C(=O)NCc4ccc(F)cc4F)c(=O)c(OCOC(=O)OC[C@H](OP(=O)(O)O)C(C)C)c2C3=O)C1 [Compound 81, (((3′S,5S,7′R)-10′-((2,4-difluorobenzyl)carbamoyl)-3-methoxy-3′-methyl-1′,11′-dioxo-1′,4′,5′,11′-tetrahydro-3′H,4H,7′H-spiro[isoxazole-5,6′-[2,7]methanopyrido[1,2-a][1,4]diazonin]-12′-yl)oxy)methyl ((R)-3-methyl-2-(phosphonooxy)butyl) carbonate]",36.9
2,"CC[C@@H](OP(=O)(O)O)[C@@H](C)OC(=O)OCOc1c2n(cc(C(=O)NCc3ccc(F)cc3F)c1=O)[C@@H]1CN(C2=O)[C@@H](C)CC[C@]12CC(OC)=NO2 [Compound 78, (((3′S,5S,7′R)-10′-((2,4-difluorobenzyl)carbamoyl)-3-methoxy-3′-methyl-1′,11′-dioxo-1′,4′,5′,11′-tetrahydro-3′H,4H,7′H-spiro[isoxazole-5,6′-[2,7]methanopyrido[1,2-a][1,4]diazonin]-12′-yl)oxy)methyl ((2R,3R)-3-(phosphonooxy)pentan-2-yl) carbonate]",28.6
3,"CC[C@H](OP(=O)(O)O)[C@H](C)OC(=O)OCOc1c2n(cc(C(=O)NCc3ccc(F)cc3F)c1=O)[C@@H]1CN(C2=O)[C@@H](C)CC[C@]12CC(OC)=NO2 [Compound 74, (((3′S,5S,7′R)-10′-((2,4-difluorobenzyl)carbamoyl)-3-methoxy-3′-methyl-1′,11′-dioxo-1′,4′,5′,11′-tetrahydro-3′H,4H,7′H-spiro[isoxazole-5,6′-[2,7]methanopyrido[1,2-a][1,4]diazonin]-12′-yl)oxy)methyl ((2S,3S)-3-(phosphonooxy)pentan-2-yl) carbonate]",26.6
4,"CC1=NO[C@@]2(CC[C@H](C)N3C[C@H]2n2cc(C(=O)NCc4ccc(F)cc4F)c(=O)c(OCOC(=O)N(C)CC(=O)O)c2C3=O)C1 [Compound 45, N-(((((3′S,5S,7′R)-10′-((2,4-difluorobenzyl)carbamoyl)-3,3′-dimethyl-1′,11′-dioxo-1′,4′,5′,11′-tetrahydro-3′H,4H,7′H-spiro[isoxazole-5,6′-[2,7]methanopyrido[1,2-a][1,4]diazonin]-12′-yl)oxy)methoxy)carbonyl)-N-methylglycine]",50
5,"CC[C@@H](OP(=O)(O)O)[C@@H](C)OC(=O)OCOc1c2n(cc(C(=O)NCc3ccc(F)cc3F)c1=O)[C@@H]1CN(C2=O)[C@@H](C)CC[C@]12CC(C)=NO2 [Compound 76, (((3′S,5S,7′R)-10′-((2,4-difluorobenzyl)carbamoyl)-3,3′-dimethyl-1′,11′-dioxo-1′,4′,5′,11′-tetrahydro-3′H,4H,7′H-spiro[isoxazole-5,6′-[2,7]methanopyrido[1,2-a][1,4]diazonin]-12′-yl)oxy)methyl ((2R,3R)-3-(phosphonooxy)pentan-2-yl) carbonate]",24.8
6,"CC[C@@H](OP(=O)(O)O)[C@H](C)OC(=O)OCOc1c2n(cc(C(=O)NCc3ccc(F)cc3F)c1=O)[C@@H]1CN(C2=O)[C@@H](C)CC[C@]12CC(OC)=NO2 [Compound 75, (((3′S,5S,7′R)-10′-((2,4-difluorobenzyl)carbamoyl)-3-methoxy-3′-methyl-1′,11′-dioxo-1′,4′,5′,11′-tetrahydro-3′H,4H,7′H-spiro[isoxazole-5,6′-[2,7]methanopyrido[1,2-a][1,4]diazonin]-12′-yl)oxy)methyl ((2S,3R)-3-(phosphonooxy)pentan-2-yl) carbonate]",34.3
7,"CC[C@H](OP(=O)(O)O)[C@@H](C)OC(=O)OCOc1c2n(cc(C(=O)NCc3ccc(F)cc3F)c1=O)[C@@H]1CN(C2=O)[C@@H](C)CC[C@]12CC(C)=NO2 [Compound 77, (((3′S,5S,7′R)-10′-((2,4-difluorobenzyl)carbamoyl)-3,3′-dimethyl-1′,11′-dioxo-1′,4′,5′,11′-tetrahydro-3′H,4H,7′H-spiro[isoxazole-5,6′-[2,7]methanopyrido[1,2-a][1,4]diazonin]-12′-yl)oxy)methyl ((2R,3S)-3-(phosphonooxy)pentan-2-yl) carbonate]",37

# From patent US20250120989A1, “BRIDGED TRICYCLIC CARBAMOYLPYRIDONE COMPOUNDS AND USES THEREOF” (priority 2023, published 2025)
